What was measured:
Prothrombin = Prothrombin (Bos taurus, UniProt P00735); experiment: Binding affinity towards thrombin
Coagulation factor X = Coagulation factor X (Homo sapiens, UniProt P00742); experiment: Binding affinity towards Coagulation factor Xa
Serine protease 1 = biological target: T1, Serine protease 1 (Bos taurus, UniProt P00760); experiment: Binding affinity towards trypsin
T1 sequence (P00760 whole entry): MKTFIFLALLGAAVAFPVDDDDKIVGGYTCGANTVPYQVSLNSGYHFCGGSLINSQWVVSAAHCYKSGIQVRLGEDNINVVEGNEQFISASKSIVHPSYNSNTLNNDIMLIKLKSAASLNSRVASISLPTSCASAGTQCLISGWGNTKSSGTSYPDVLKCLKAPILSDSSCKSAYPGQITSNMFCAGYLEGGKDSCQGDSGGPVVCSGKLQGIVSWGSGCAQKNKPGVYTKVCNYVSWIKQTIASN

Coagulation factor X, sequence (P00742 41-179 limits assumed): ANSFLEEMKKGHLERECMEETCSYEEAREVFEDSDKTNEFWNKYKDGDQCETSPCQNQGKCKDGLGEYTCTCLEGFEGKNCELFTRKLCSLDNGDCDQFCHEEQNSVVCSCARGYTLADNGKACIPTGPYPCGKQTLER
Coagulation factor X, sequence (P00742 235-488 limits assumed): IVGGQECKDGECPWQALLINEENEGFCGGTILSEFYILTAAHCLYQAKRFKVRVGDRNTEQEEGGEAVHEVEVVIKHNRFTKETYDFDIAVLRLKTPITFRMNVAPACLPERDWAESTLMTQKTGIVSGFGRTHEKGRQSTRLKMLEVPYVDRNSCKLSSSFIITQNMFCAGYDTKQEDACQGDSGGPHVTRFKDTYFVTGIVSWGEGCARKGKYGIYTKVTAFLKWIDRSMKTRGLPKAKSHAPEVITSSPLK

SMILES | Ki (Prothrombin) [nM] | Ki (Coagulation factor X) [nM] | Ki (Serine protease 1) [nM]
N=C(N)c1cccc(C[C@H](NS(=O)(=O)c2ccc3ccccc3c2)C(=O)N2CCC(C(=O)OC3CCCCC3)CC2)c1 | 2100 | 7600 | 80
CN(C)C(=O)N1CCN(C(=O)[C@H](Cc2cccc(C(=N)N)c2)NS(=O)(=O)c2ccc3ccccc3c2)CC1 | 8.71 | 24000 | 170
COC(=O)C1CCN(C(=O)[C@H](Cc2cccc(C(=N)N)c2)NS(=O)(=O)c2ccc3ccccc3c2)CC1 | 17 | 42700 | 36
N=C(N)c1cccc(C[C@H](NS(=O)(=O)c2ccc3ccccc3c2)C(=O)N2CCC[C@H](C(=O)O)C2)c1 | 1100 | […] | […]
CC(C)c1cc(C(C)C)c(S(=O)(=O)N[C@@H](Cc2cccc(C(=N)N)c2)C(=O)N2CCN(S(C)(=O)=O)CC2)c(C(C)C)c1 | 280 | 7400 | 979
N=C(N)c1cccc(C[C@H](NS(=O)(=O)c2ccc3ccccc3c2)C(=O)N2CCCC[C@@H]2C(=O)O)c1 | 260 | 38000 | 631
CC1CCN(C(=O)[C@H](Cc2cccc(C(=N)N)c2)NS(=O)(=O)C[C@]23CC[C@H](CC2=O)C3(C)C)CC1 | 14.1 | 14100 | 631
N=C(N)c1cccc(C[C@H](NS(=O)(=O)c2ccc3ccccc3c2)C(=O)N2Cc3ccccc3C[C@@H]2C(=O)OCc2ccccc2)c1 | 690 | 7760 | 1200
N=C(N)c1cccc(C[C@H](NS(=O)(=O)c2ccc3ccccc3c2)C(=O)N2CCC[C@H](C(=O)OCc3ccccc3)C2)c1 | 300 | 8590 | 160
N=C(N)c1cccc(C[C@H](NS(=O)(=O)c2ccc3ccccc3c2)C(=O)N2CCC[C@H](C(=O)NCc3ccccc3)C2)c1 | 280 | 17000 | 120
COC(=O)[C@H]1C[C@H](C)CCN1C(=O)[C@H](Cc1cccc(C(=N)N)c1)NS(=O)(=O)c1ccc2ccccc2c1 | 95.9 | […] | 2200
CC1CCN(C(=O)[C@H](Cc2cccc(C(=N)N)c2)NS(=O)(=O)c2cccc3ccccc23)CC1 | 16 | 42000 | 631
COC(=O)C1CCN(C(=O)[C@H](Cc2cccc(C(=N)N)c2)NS(=O)(=O)c2c(C(C)C)cc(C(C)C)cc2C(C)C)CC1 | 151 | 2600 | 270
N=C(N)c1cccc(C[C@H](NS(=O)(=O)c2ccc3ccccc3c2)C(=O)N2CCCC2)c1 | 52 | 50000 | 437

Second part, the molecule after the results:

Ki (Prothrombin) [nM] | Ki (Coagulation factor X) [nM] | Ki (Serine protease 1) [nM] | SMILES
34 | 80000 | 729 | Cc1c(C)c(S(=O)(=O)N[C@@H](Cc2cccc(C(=N)N)c2)C(=O)N2CCC(C)CC2)c(C)c2c1OC(C)(C)CC2
320 | 13000 | 1200 | N=C(N)c1cccc(C[C@H](NS(=O)(=O)c2ccc3ccccc3c2)C(=O)N2CC[C@@H]3CCCC[C@H]32)c1
120 | 2300 | 1510 | N=C(N)c1cccc(C[C@H](NS(=O)(=O)c2ccc3ccccc3c2)C(=O)N2CCCc3ccccc32)c1
6190 | 360000 | 16000 | CC(C)NC(=O)[C@H](Cc1cccc(C(=N)N)c1)NS(=O)(=O)c1ccc2ccccc2c1
3800 | 11000 | 26000 | CNC(=O)[C@H](Cc1cccc(C(=N)N)c1)NS(=O)(=O)c1c(C(C)C)cc(C(C)C)cc1C(C)C
5 | 12000 | 200 | CC1CCN(C(=O)[C@H](Cc2cccc(C(=N)N)c2)NS(=O)(=O)c2ccc(C(C)(C)C)cc2)CC1
5700 | 26000 | 25100 | CNC(=O)[C@H](Cc1cccc(C(=N)N)c1)NS(=O)(=O)c1ccc2ccccc2c1
17000 | 190000 | 140000 | CNC(=O)[C@H](Cc1cccc(C(=N)N)c1)NS(=O)(=O)c1c(C)cc(OC)c(C)c1C
661 | 110000 | 8090 | COC(=O)[C@@H]1CCCN1C(=O)[C@H](Cc1cccc(C(=N)N)c1)NS(=O)(=O)c1ccc2ccccc2c1
520 | 27000 | 27 | N=C(N)c1cccc(C[C@H](NS(=O)(=O)c2ccc3ccccc3c2)C(=O)N2CCN(c3ccccc3)CC2)c1
120 | 46800 | 4000 | CCCCNC(=O)[C@H](Cc1cccc(C(=N)N)c1)NS(=O)(=O)c1ccc2ccccc2c1
37 | 18000 | 260 | N=C(N)c1cccc(C[C@H](NS(=O)(=O)c2ccc3ccccc3c2)C(=O)N2CCc3ccccc3C2)c1
42 | 2200 | 520 | N=C(N)c1cccc(C[C@H](NS(=O)(=O)c2ccc3ccccc3c2)C(=O)OCc2ccccc2)c1
710 | 25100 | 23 | CC(C)OC(=O)C1CCN(C(=O)[C@H](Cc2cccc(C(=N)N)c2)NS(=O)(=O)c2ccc3ccccc3c2)CC1
59 | 95500 | 4000 | Cc1cc(C)c(S(=O)(=O)N[C@@H](Cc2cccc(C(=N)N)c2)C(=O)N2CCC(C)CC2)c(C)c1
180 | 83200 | 991 | COC(=O)C1CCN(C(=O)[C@H](Cc2cccc(C(=N)N)c2)NS(=O)(=O)c2c(C)cc(C)cc2C)CC1
120 | 54000 | 4500 | N=C(N)c1cccc(C[C@H](NS(=O)(=O)c2ccc3ccccc3c2)C(=O)N2Cc3ccccc3C=C2C(=O)O)c1
